One assay deals with T1, Caspase-1 (Homo sapiens, UniProt P29466).
T1 construct: purchased Enzo Biosciences
T1 sequence (P29466 120-297 limits assumed): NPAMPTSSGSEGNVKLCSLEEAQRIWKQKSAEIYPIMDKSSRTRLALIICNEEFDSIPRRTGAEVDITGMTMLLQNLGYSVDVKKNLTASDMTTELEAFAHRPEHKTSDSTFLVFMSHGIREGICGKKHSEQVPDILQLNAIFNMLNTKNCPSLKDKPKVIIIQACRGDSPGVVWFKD
T1 sequence (P29466 317-404 limits assumed): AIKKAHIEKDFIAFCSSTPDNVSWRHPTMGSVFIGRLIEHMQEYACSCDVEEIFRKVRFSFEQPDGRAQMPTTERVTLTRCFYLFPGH
As to the kind of experiment: Caspase-1 enzyme inhibition assay (Ac-YVAD-pNA substrate), IC50. The class given is biochemical. The essentials:
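Buffer was 50 mM HEPES pH 7.4, 100 mM NaCl, 0.1% CHAPS, 1 mM EDTA, 10% glycerol and 10 mM DTT. Caspase-1 was reacted with 200 μM Ac-YVAD-pNA (final). Release of p-nitroaniline was followed continuously at 405 nm, and rates were taken from the linear slope (ε 10,500 M-1 cm-1).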

For a further assay, the target named is T2, Caspase-3 (Homo sapiens, UniProt P42574).
T2 construct: purchased Enzo Biosciences
T2 sequence (P42574 29-175 limits assumed): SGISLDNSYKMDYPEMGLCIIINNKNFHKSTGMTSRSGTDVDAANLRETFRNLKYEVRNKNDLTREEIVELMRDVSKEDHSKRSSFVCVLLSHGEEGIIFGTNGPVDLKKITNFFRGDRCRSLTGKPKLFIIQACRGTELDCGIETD
T2 sequence (P42574 176-277 limits assumed): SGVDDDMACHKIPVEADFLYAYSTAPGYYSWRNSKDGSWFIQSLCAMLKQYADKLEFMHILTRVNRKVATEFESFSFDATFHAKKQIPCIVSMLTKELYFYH
As to the kind of experiment: Caspase-3 enzymatic inhibition assay, IC50. The class given is biochemical. As to conditions: read-out: Caspase 3 enzyme inhibition IC50. The essentials: (§1)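 Commercially sourced human caspases. Activity assays followed the maker's instructions for caspase-3, 6 and 7. Potency given as IC50.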

The target of the next assay is T3, Caspase 7 (Homo sapiens, UniProt P55210).
T3 construct: purchased Enzo Biosciences
T3 sequence (P55210 24-198 limits assumed): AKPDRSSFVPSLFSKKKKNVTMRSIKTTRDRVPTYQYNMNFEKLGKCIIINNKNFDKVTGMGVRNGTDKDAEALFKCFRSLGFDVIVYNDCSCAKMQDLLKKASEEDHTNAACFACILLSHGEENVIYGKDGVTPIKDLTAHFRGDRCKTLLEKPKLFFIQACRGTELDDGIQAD
T3 sequence (P55210 207-303 limits assumed): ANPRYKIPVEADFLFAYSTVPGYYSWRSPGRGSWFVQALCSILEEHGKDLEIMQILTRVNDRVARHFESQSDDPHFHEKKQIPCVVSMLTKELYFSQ
As to the kind of experiment: Caspase 7 enzymatic inhibition assay, IC50. As to conditions: read-out: Caspase 7 enzyme inhibition IC50. The class given is biochemical. In short, it runs like this: as §1

The next assay has as its system IL-1β. As to the kind of experiment: Inhibition of LPS-stimulated IL-1β in THP-1 cells (ELISA). Type of assay: cell-based, human. To be noted: Homo sapiens, 10 micromolar, read-out: Percent Inhibition of IL1-β. On the technique in general: An ELISA detects its analyte on a solid surface through an enzyme-linked reagent.
The test system of another assay is IL 18. Kind of assay: Mouse in vivo model of peritoneal inflammation (LPS/ATP), IL 18 in peritoneal lavage fluid. Further details: species or system Mice. To be noted: mouse peritonitis, IP injection. The protocol:
Compounds of the present invention were tested in a mouse in vivo model of peritoneal inflammation (peritonitis). Mice were treated with intraperotonial injection of bacterial endotoxin, (LPS). After 1 hour, test compounds were administered by IP injection. After an additional hour, adenosine triphosphate (ATP) was administered by IP injection to further induce the production of the inflammatory cytokines, IL-1β and IL 18. After 0.5 hours, peritoneal lavage fluid was collected and analyzed for IL-1β and IL 18. An inhibitor of the NLRP 3 inflammasome, MCC950, was administered by IP injection and included as a reference test compound. […] IL18 levels were determined by a commercially available ELISA kit following the manufacture's instructions FIG. 3.

Bounds are passed on as bounds.

Regarding `C[C@H](NC(=O)C(=O)Nc1c(F)cccc1F)C(=O)N[C@@H](CCC(=O)O)C(=O)COc1c(F)c(F)cc(F)c1F` [Example 6, (S)-4-((S)-2-(2-((2,6-Difluorophenyl)amino)-2-oxoacetamido)propanamido)-5-oxo-6-(2,3,5,6-tetrafluorophenoxy)hexanoic acid], the concentration for half-maximal inhibition (IC50) – broadly, the concentration that inhibits the measured activity by half – is ≤ 0.01 µM at Caspase-1, ≥ 1 µM on Caspase-3 and ≥ 1 µM at Caspase 7. Also, the inhibition (usually the percentage by which the read-out fell short of the control) at 10 µM with IL-1β is > 90%. In addition, the “inhibition of the in vivo production of IL 18” value with IL 18 is given as “statistically significant inhibition”.

The values are drawn from patent US11597703B2, “Caspase inhibitors and methods of use thereof” (Histogen Inc., priority 2019, dated 2023).
